Experimental data published in patent US20260022142A1, “MACROCYCLIC IMMUNOMODULATORS” (Bristol-Myers Squibb Company, priority 2022, published 2026).
Numbered stars: 1 amine (or outer) side, 2 acyl side, 3 side chain; on linkers, the order of the positions; unused ones are H or OH. Bridge positions count the residues as written; N and C are the ends. Square brackets hold non-standard residues; d marks the D form. Peptide text beside a SMILES is read from it. * marks the point of attachment. Phe(3-CF3) = N[C@@H](Cc1cccc(C(F)(F)F)c1)C(=O)O; Phe(4-COOH) = N[C@@H](Cc1ccc(C(=O)O)cc1)C(=O)O; Bip = N[C@@H](Cc1ccc(-c2ccccc2)cc1)C(=O)O; NH(CH2)14COOH = O=C(O)CCCCCCCCCCCCCCN*; Phe(3-Me) = Cc1cccc(C[C@H](N)C(=O)O)c1; X5 = CC(C)(CCN)[C@H](N[*:1])C(=O)[*:2]; βAsp = O=C(O)[C@H](CC(=O)[*:2])N[*:1]; Cyclopropanecarbonyl = O=C(C1CC1)*; Val(3-OH) = CC(C)(O)[C@H](N)C(=O)O; 4Pal = N[C@@H](Cc1ccncc1)C(=O)O; 3Thi = N[C@@H](Cc1ccsc1)C(=O)O; Cha = N[C@@H](CC1CCCCC1)C(=O)O; Cit = NC(=O)NCCC[C@H](N)C(=O)O; 12Ado = NCCCCCCCCCCCC(=O)O; 4Abz = Nc1ccc(C(=O)O)cc1; Carboxymethyl = O=C(O)C*; Orn = NCCC[C@H](N)C(=O)O; Aun = NCCCCCCCCCCC(=O)O; Dab = NCC[C@H](N)C(=O)O; Nva = CCC[C@H](N)C(=O)O; Dap = NC[C@H](N)C(=O)O; AEEA = NCCOCCOCC(=O)O

The compounds below were run against T1, PD-1/PD-L1 interaction (PE-labeled human PD-L1-Ig binding to Jurkat cell line over-expressing human PD-1) (Homo sapiens, UniProt Q15116) (assay: Jurkat-PD-1 Cell Binding High-Content Screening Assay (CBA)). Settings: Jurkat cell line over-expressing human PD-1; PE-labeled PD-L1-Ig 20 nM final; read-out: Jurkat hPD1-PDL1 IC50.
T1 construct: expressed in transfected cells; host or cells: Jurkat
Type: cell-based
In short: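 First, compound is added to PD-1-expressing Jurkat cells in serum-containing DMEM and left 2 h at 37° C. Next, PE-conjugated PD-L1-Ig is introduced at 20 nM final concentration for 1 hour. Finally, cells are fixed in 4% paraformaldehyde with Hoechst 33342, washed and imaged.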

T1 sequence (Q15116 25-288): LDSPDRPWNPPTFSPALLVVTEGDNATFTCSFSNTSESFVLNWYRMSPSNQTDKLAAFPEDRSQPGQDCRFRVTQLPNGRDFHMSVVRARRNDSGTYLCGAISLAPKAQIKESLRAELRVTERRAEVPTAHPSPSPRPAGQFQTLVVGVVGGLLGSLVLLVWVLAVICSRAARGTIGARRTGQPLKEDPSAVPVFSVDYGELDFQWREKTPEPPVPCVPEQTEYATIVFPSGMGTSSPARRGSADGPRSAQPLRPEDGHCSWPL

Structure (SMILES) | IC50 [µM]
CCC[C@@H]1NC(=O)CSC[C@@H](C(=O)N[C@@H](CCN)C(=O)NCCCCCCCCCCCCCCC(=O)O)NC(=O)[C@H](CO)NC(=O)[C@H](C(C)(C)O)NC(=O)[C@H](CC2CCCCC2)NC(=O)[C@H](CCN)NC(=O)[C@@H](CC(C)C)NC(=O)[C@H](CCCN)NC(=O)[C@H](Cc2ccc(OCC(=O)O)cc2)NC(=O)[C@H](Cc2ccc(-c3ccccc3)cc2)NC(=O)[C@H](Cc2ccc(OCC(=O)O)cc2)NC(=O)[C@H](Cc2cccc(C(F)(F)F)c2)NC(=O)[C@H](CC(=O)O)NC(=O)[C@H](Cc2ccc(C(=O)O)cc2)NC1=O [Compound 2904] ({CH2CO}-[Nva][Phe(4-COOH)]D[Phe(3-CF3)]Y(Carboxymethyl)[Bip]Y(Carboxymethyl)[Orn][dL][Dab][Cha][Val(3-OH)]SC[Dab]-{NH(CH2)14COOH}; thioether N-14) | 0.518
CC(=O)NCCCC[C@@H]1NC(=O)[C@H](C(C)(C)O)NC(=O)[C@H](CC2CCCCC2)NC(=O)[C@H](CCN)NC(=O)[C@@H](CC(C)C)NC(=O)[C@H](CCCN)NC(=O)[C@H](Cc2ccc(C(=O)O)cc2)NC(=O)[C@H](Cc2ccc(-c3ccccc3)cc2)NC(=O)[C@H](Cc2ccc(C(=O)O)cc2)NC(=O)[C@H](Cc2cccc(C(F)(F)F)c2)NC(=O)[C@H](CC(=O)O)NC(=O)[C@H](Cc2ccc(OCC(=O)O)cc2)NC(=O)[C@H](Cc2cnc[nH]2)NC(=O)CSC[C@@H](C(=O)N[C@@H](CCN)C(=O)NCCOCCOCC(=O)N[C@@H](CC(=O)N[C@@H](CC(=O)O)C(=O)NCCCCCCCCCCCCCCC(=O)O)C(=O)O)NC1=O [Compound 3888] ({CH2CO}-HY(Carboxymethyl)D[Phe(3-CF3)][Phe(4-COOH)][Bip][Phe(4-COOH)][Orn][dL][Dab][Cha][Val(3-OH)]K(Ac)C[Dab][AEEA][βAsp]D-{NH(CH2)14COOH}; thioether N-14) | 0.116
CC(C)C[C@@H]1NC(=O)[C@H](Cc2c[nH]c3ccccc23)NC(=O)[C@H](CC(=O)O)NC(=O)[C@H](Cc2ccncc2)NC(=O)[C@H](Cc2ccc(OCC(=O)O)cc2)NC(=O)CSC[C@@H](C(=O)Nc2ccc(C(=O)NCCCCCCCCCCC(=O)O)cc2)NC(=O)[C@H](CCN)NC(=O)[C@H](C(C)C)NC(=O)[C@H](CC2CCCCC2)NC(=O)[C@H](CCN)NC(=O)[C@@H](CC(C)C)NC(=O)[C@H](CCCN)NC(=O)[C@H](C(C)C)NC(=O)[C@H](Cc2ccc(-c3ccccc3)cc2)NC1=O [Compound 1229] ({CH2CO}-Y(Carboxymethyl)[4Pal]DWL[Bip]V[Orn][dL][Dab][Cha]V[Dab]C[4Abz][Aun]-OH; thioether N-14) | 0.518
Cc1cccc(C[C@@H]2NC(=O)[C@H](CC(=O)O)NC(=O)[C@H](Cc3ccc(OCC(=O)O)cc3)NC(=O)[C@H](CN)NC(=O)CSC[C@@H](C(=O)N[C@@H](CCN)C(=O)NCCCCCCCCCCC(=O)O)NC(=O)[C@@H](CO)NC(=O)[C@H](C(C)C)NC(=O)[C@H](CC3CCCCC3)NC(=O)[C@H](CCN)NC(=O)[C@@H](CC(C)C)NC(=O)[C@H](CCCN)NC(=O)[C@H](CCCNC(N)=O)NC(=O)[C@H](Cc3ccc(-c4ccccc4)cc3)NC(=O)[C@H](C(C)C)NC2=O)c1 [Compound 2000] ({CH2CO}-[Dap]Y(Carboxymethyl)D[Phe(3-Me)]V[Bip][Cit][Orn][dL][Dab][Cha]V[dS]C[Dab][Aun]-OH; thioether N-14) | 0.0143
CC[C@H](C)[C@@H]1NC(=O)[C@H](Cc2ccc(-c3ccccc3)cc2)NC(=O)[C@H](C(C)C)NC(=O)[C@H](Cc2cccc(C)c2)NC(=O)[C@H](CC(=O)O)NC(=O)[C@H](Cc2ccc(C(=O)O)cc2)NC(=O)[C@H](Cc2ccncc2)NC(=O)CSC[C@@H](C(=O)N[C@@H](CCCCN)C(=O)NCCCCCCCCCCC(=O)O)NC(=O)[C@H]([C@@H](C)O)NC(=O)[C@H](C(C)C)NC(=O)[C@H](CC2CCCCC2)NC(=O)[C@H](CCN)NC(=O)[C@@H](CC(C)C)NC(=O)[C@H](CCCN)NC1=O [Compound 1185] | 0.0442
Cc1cccc(C[C@@H]2NC(=O)[C@H](CC(=O)O)NC(=O)[C@H](Cc3ccc(OCC(=O)O)cc3)NC(=O)[C@H](CCCNC(=O)C3CC3)NC(=O)CSC[C@@H](C(=O)N[C@@H](CCCN)C(=O)N[C@@H](CO)C(=O)NCCCCCCCCCCCC(=O)O)NC(=O)[C@H](CO)NC(=O)[C@H](CCCCN)NC(=O)[C@H](CC3CCCCC3)NC(=O)[C@H](CCN)NC(=O)[C@@H](CC(C)C)NC(=O)[C@H](CCCN)NC(=O)[C@H](Cc3ccc(OCC(=O)O)cc3)NC(=O)[C@H](Cc3ccc(-c4ccccc4)cc3)NC(=O)[C@H](Cc3ccc(OCC(=O)O)cc3)NC2=O)c1 [Compound 3614] ({CH2CO}-[Orn](Cyclopropanecarbonyl)Y(Carboxymethyl)D[Phe(3-Me)]Y(Carboxymethyl)[Bip]Y(Carboxymethyl)[Orn][dL][Dab][Cha]KSC[Orn]S[12Ado]-OH; thioether N-14) | 0.0097
Cc1cccc(C[C@@H]2NC(=O)[C@H](CC(=O)O)NC(=O)[C@H](Cc3ccc(O)cc3)NC(=O)[C@@H](CCCNC(=N)N)NC(=O)CSC[C@@H](C(=O)N[C@@H](CCN)C(=O)NCCCCCCCCCCC(=O)O)NC(=O)[C@H](CO)NC(=O)[C@H](C(C)(C)O)NC(=O)[C@H](CC3CCCCC3)NC(=O)[C@H](CCN)NC(=O)[C@@H](CC(C)C)NC(=O)[C@H](CCCN)NC(=O)[C@H](Cc3ccc(OCC(=O)O)cc3)NC(=O)[C@H](Cc3ccc(-c4ccccc4)cc3)NC(=O)[C@H](Cc3ccc(OCC(=O)O)cc3)NC2=O)c1 [Compound 3640] ({CH2CO}-[dR]YD[Phe(3-Me)]Y(Carboxymethyl)[Bip]Y(Carboxymethyl)[Orn][dL][Dab][Cha][Val(3-OH)]SC[Dab][Aun]-OH; thioether N-14) | 0.011

Next, values leading:

IC50 [µM] | Structure (SMILES)
0.207 | Cc1cccc(C[C@@H]2NC(=O)[C@H](CC(=O)O)NC(=O)[C@H](Cc3ccc(OCC(=O)O)cc3)NC(=O)[C@H](CCN)NC(=O)CSC[C@@H](C(=O)N[C@H](C(=O)NCCCCCCCCCCC(=O)O)C(C)(C)CCN)NC(=O)[C@H](CO)NC(=O)[C@H](C(C)(C)O)NC(=O)[C@H](CC3CCCCC3)NC(=O)[C@H](CCN)NC(=O)[C@@H](CC(C)C)NC(=O)[C@H](CCCN)NC(=O)[C@H](Cc3ccc(OCC(=O)O)cc3)NC(=O)[C@H](Cc3ccc(-c4ccccc4)cc3)NC(=O)[C@H](Cc3ccc(OCC(=O)O)cc3)NC2=O)c1 [Compound 2261] ({CH2CO}-[Dab]Y(Carboxymethyl)D[Phe(3-Me)]Y(Carboxymethyl)[Bip]Y(Carboxymethyl)[Orn][dL][Dab][Cha][Val(3-OH)]SC[X5][Aun]-OH; thioether N-14)
0.0109 | Cc1cccc(C[C@@H]2NC(=O)[C@H](CC(=O)O)NC(=O)[C@H](Cc3ccc(OCC(=O)O)cc3)NC(=O)[C@H](CCN)NC(=O)CSC[C@@H](C(=O)N[C@@H](CCN)C(=O)NCCCCCCCCCCC(=O)O)NC(=O)[C@H]([C@@H](C)O)NC(=O)[C@H](C(C)C)NC(=O)[C@H](CC3CCCCC3)NC(=O)[C@H](CCN)NC(=O)[C@@H](CC(C)C)NC(=O)[C@H](CCCN)NC(=O)[C@H](CCCNC(N)=O)NC(=O)[C@H](Cc3ccc(-c4ccccc4)cc3)NC(=O)[C@H](C(C)C)NC2=O)c1 [Compound 2821] ({CH2CO}-[Dab]Y(Carboxymethyl)D[Phe(3-Me)]V[Bip][Cit][Orn][dL][Dab][Cha]VTC[Dab][Aun]-OH; thioether N-14)
0.0068 | Cc1cccc(C[C@@H]2NC(=O)[C@H](CC(=O)O)NC(=O)[C@H](Cc3ccc(OCC(=O)O)cc3)NC(=O)[C@H](CCCNC(=N)N)NC(=O)CSC[C@@H](C(=O)N[C@@H](CCN)C(=O)NCCCCCCCCCCC(=O)O)NC(=O)[C@H](CCCN)NC(=O)[C@H](C(C)C)NC(=O)[C@H](CC3CCCCC3)NC(=O)[C@H](CCN)NC(=O)[C@@H](CC(C)C)NC(=O)[C@H](CCCN)NC(=O)[C@H](CCC(N)=O)NC(=O)[C@H](Cc3ccc(-c4ccccc4)cc3)NC(=O)[C@H](C(C)C)NC2=O)c1 [Compound 3356] ({CH2CO}-RY(Carboxymethyl)D[Phe(3-Me)]V[Bip]Q[Orn][dL][Dab][Cha]V[Orn]C[Dab][Aun]-OH; thioether N-14)
0.0208 | Cc1cccc(C[C@@H]2NC(=O)[C@H](CC(=O)O)NC(=O)[C@H](Cc3ccc(OCC(=O)O)cc3)NC(=O)[C@H](CN)NC(=O)CSC[C@@H](C(=O)NCCOCCOCC(=O)NCCCCCCCCCCC(=O)O)NC(=O)[C@H]([C@@H](C)O)NC(=O)[C@H](C(C)C)NC(=O)[C@H](CC3CCCCC3)NC(=O)[C@H](CCN)NC(=O)[C@@H](CC(C)C)NC(=O)[C@H](CCCN)NC(=O)[C@H](CCCNC(N)=O)NC(=O)[C@H](Cc3ccc(-c4ccccc4)cc3)NC(=O)[C@H](C(C)C)NC2=O)c1 [Compound 1038] ({CH2CO}-[Dap]Y(Carboxymethyl)D[Phe(3-Me)]V[Bip][Cit][Orn][dL][Dab][Cha]VTC[AEEA][Aun]-OH; thioether N-14)
0.0083 | CC(C)C[C@H]1NC(=O)[C@H](CCN)NC(=O)[C@H](C(C)C)NC(=O)[C@H](Cc2ccc(-c3ccccc3)cc2)NC(=O)[C@H](C(C)C)NC(=O)[C@H](Cc2c[nH]c3ccccc23)NC(=O)[C@H](CC(=O)O)NC(=O)[C@H](Cc2ccc(OCC(=O)O)cc2)NC(=O)[C@H](Cc2ccsc2)NC(=O)CSC[C@@H](C(=O)N[C@H](CC(N)=O)C(=O)NCCCCCCCCCCC(=O)O)NC(=O)[C@H](CCCCN)NC(=O)[C@H](C(C)C)NC(=O)[C@H](CC2CCCCC2)NC(=O)[C@H](CCN)NC1=O [Compound 3286] ({CH2CO}-[3Thi]Y(Carboxymethyl)DWV[Bip]V[Dab][dL][Dab][Cha]VKC[dN][Aun]-OH; thioether N-14)
0.0033 | Cc1cccc(C[C@@H]2NC(=O)[C@H](CC(=O)O)NC(=O)[C@H](Cc3ccc(OCC(=O)O)cc3)NC(=O)[C@H](CCCNC(=N)N)NC(=O)CSC[C@@H](C(=O)N[C@@H](CCN)C(=O)NCCCCCCCCCCC(=O)O)NC(=O)[C@H](CC(=O)O)NC(=O)[C@H](C(C)(C)O)NC(=O)[C@H](CC3CCCCC3)NC(=O)[C@H](CCN)NC(=O)[C@@H](CC(C)C)NC(=O)[C@H](CCCN)NC(=O)[C@H](Cc3ccc(OCC(=O)O)cc3)NC(=O)[C@H](Cc3ccc(-c4ccccc4)cc3)NC(=O)[C@H](Cc3ccc(OCC(=O)O)cc3)NC2=O)c1 [Compound 2864] ({CH2CO}-RY(Carboxymethyl)D[Phe(3-Me)]Y(Carboxymethyl)[Bip]Y(Carboxymethyl)[Orn][dL][Dab][Cha][Val(3-OH)]DC[Dab][Aun]-OH; thioether N-14)
